Data set [1] deals with T1, DPP-IV (Homo sapiens, UniProt P27487).
T1 construct: purchased Sigma-Aldrich
In words: DPP-IV inhibitory assay (in vitro chemical system, Gly-Pro-pNA). It is filed as biochemical. To be noted: Gly-Pro-pNA substrate, pH 8, 37 °C, 60 min, mean ± SD. On the procedure: The DPP-IV inhibitory activity of peptides was performed as previously reported with slight modifications. Briefly, peptides were diluted using 100 mM Tris-HCL buffer (pH = 8). Then, 25 μL diluted peptides were mixed with 25 μL of 1.6 mM Gly-Pro-pNA in a 96-well microplate and incubated at 37 °C for 10 min. […] The DPP-IV-inhibition (DI) was calculated with the following equation: DI%=1−AS−ASC/ANR−ANC×100% where AS (sample) is the optical density in the presence of peptide, DPP-IV, and Gly-Pro-pNA; ASC (sample control) is the optical density when DPP-IV is replaced with Tris-HCl buffer (100 mM, pH 8.0); ANR (negative reaction) is the optical density in the presence of only DPP-IV solution and Gly-Pro-pNA; and ANC (negative control) is the optical density in the absence of DPP-IV and peptide.

Data set [2] has as its system DPP-IV. To be noted: cited from earlier work.
Data set [3] addresses T2, DPP-IV activity of Caco-2 cells (Homo sapiens, UniProt P27487).
T2 construct: endogenous in cells; host or cells: Caco-2
In words: In situ cell-based DPP-IV inhibition (Gly-Pro-AMC). To be noted: 1 h at 37 °C, Gly-Pro-AMC 50 µM, mean ± SD (n = 3), read-out: In situ DPP-IV inhibitory activity IC50. On the procedure: (§1) The Caco-2 cells (Cell Bank of Shanghai Academy of Biological Science, Shanghai, China) were incubated at 37 °C in a 5% CO2 environment in DMEM supplemented with 10% FBS and 1% penicillin–streptomycin liquid. Unless otherwise stated below, the cells were cultivated at a density of 5 × 10^4 cells/mL in the culture dishes (Corning Inc., Corning, NY, USA). The cell culture medium was changed every two days, and the cells from passage numbers of 15–25 were used in this study.
Briefly, 2 × 10^4 Caco-2 cells/well cells were seeded in 96-well microplates and cultivated for 24 h. […] Subsequently, 100 µL of the fluorescent substrate Gly-Pro-AMC (50 µM) was added to each well and incubated for 5 min. IPI was used as a positive control. Then, the florescence was monitored with excitation and emission wavelengths of 380 nm and 500 nm (Molecular Devices SpectraMax M5, San Jose, CA, USA).

The test system of a further data set is Caco-2 cells. In words: Cell viability assay (MTT). To be noted: 0.025~1 mg/mL, 12 h. It is filed as cell-based. On the procedure:
as §1
The cell viability was determined following the method described by You et al. with slight modification. Briefly, Caco-2 cells were seeded in 96-well microplates with a density of 1 × 10^4 cells/well and incubated at 37 °C with 5% CO2 for 24 h. […] After 12 h of intervention, 10 μL of MTT (0.05 mg) was added and incubated for another 4 h. Finally, the DMEM medium was replaced with 100 μL of DMSO and the absorbance of the solubilized crystals was detected at 490 nm (Molecular Devices SpectraMax M5, San Jose, CA, USA). The cell viability was calculated by the following equation:Cell viability (%) = (ODtest − ODblank)/(ODcontrol − ODblank) × 100%

Setting [4] is: in vitro, identified in the intestinal tract following cow milk ingestion, read-out: DPP-IV inhibition IC50.
Setting [5] is: competitive DPP-IV inhibitory peptides from camel whey protein, read-out: DPP-IV inhibition IC50.
The mark [6] stands for this setting: in vitro inhibition test, camel-milk-derived protein hydrolysates.
Where [7] appears, read: read-out: DPP-IV inhibition IC50.
The mark [8] stands for this setting: peptides with molecular weights greater than 1000 Da, no reference given, read-out: DPP-IV inhibition IC50.

Like-named read-outs stand apart in the source and are kept apart here. Peptide text beside a SMILES is read from it.

T1 sequence (P27487 whole entry): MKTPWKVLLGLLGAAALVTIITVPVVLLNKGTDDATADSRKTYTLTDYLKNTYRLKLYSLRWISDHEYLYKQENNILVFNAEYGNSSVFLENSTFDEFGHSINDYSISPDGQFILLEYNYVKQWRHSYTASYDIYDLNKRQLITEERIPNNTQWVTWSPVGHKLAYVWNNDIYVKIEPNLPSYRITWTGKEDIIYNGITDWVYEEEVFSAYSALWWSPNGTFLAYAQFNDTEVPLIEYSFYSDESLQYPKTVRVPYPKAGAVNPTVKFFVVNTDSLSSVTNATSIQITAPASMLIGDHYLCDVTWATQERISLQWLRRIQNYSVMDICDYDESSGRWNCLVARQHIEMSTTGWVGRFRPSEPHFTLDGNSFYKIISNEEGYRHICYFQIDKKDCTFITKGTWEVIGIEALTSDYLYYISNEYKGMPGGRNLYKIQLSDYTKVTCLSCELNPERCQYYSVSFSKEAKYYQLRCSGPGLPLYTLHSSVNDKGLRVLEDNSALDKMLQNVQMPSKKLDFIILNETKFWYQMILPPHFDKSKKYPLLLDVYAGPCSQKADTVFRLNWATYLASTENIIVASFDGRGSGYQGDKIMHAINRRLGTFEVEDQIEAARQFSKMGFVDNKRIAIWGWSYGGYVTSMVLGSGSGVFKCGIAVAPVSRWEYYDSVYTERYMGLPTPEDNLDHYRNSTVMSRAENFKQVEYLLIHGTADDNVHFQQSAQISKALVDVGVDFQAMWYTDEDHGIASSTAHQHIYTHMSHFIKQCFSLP
T2 sequence (P27487 whole entry): as above

For LLW [Peptide P14], the “DPP-IV Inhibitory Activity (IC50, μM)” value at DPP-IV [1] was “not detectable”; at DPP-IV [1] (listed as LLW), “no DPP-IV inhibitory activity”.

The IC50 is the concentration that inhibits the measured activity by half. `CC(C)C[C@H](NC(=O)[C@H](C)NC(=O)[C@@H]1CCCN1)C(=O)N[C@@H](Cc1ccccc1)C(=O)O` [Peptide P5, PALF] (H-PALF-OH; N-terminus and C-terminus assumed) had an IC50 at DPP-IV [1] of 1750 ± 29.9 µM. Take FVY [Peptide P6]: the “DPP-IV Inhibitory Activity (IC50, μM)” value on DPP-IV [1] is given as “not detectable”. Regarding IPM, the IC50 in the data set with DPP-IV [2] (setting [4]) was 69.5 ± 8.7 µM. With LWV [Peptide P12], the “DPP-IV Inhibitory Activity (IC50, μM)” value on DPP-IV [1] is reported as “not detectable”. In turn, `CC(C)C[C@H](NC(=O)[C@@H]1CCCN1C(=O)[C@@H]1CCCN1C(=O)[C@@H](N)CC(C)C)C(=O)O` [Peptide P3, LPPL] (H-LPPL-OH; N-terminus and C-terminus assumed) gave an IC50 at DPP-IV [1] of 2559 ± 5.7 µM.

In the case of FLEP, the IC50 in the data set on DPP-IV [2] (tri- and tetrapeptides containing Pro at the C-terminus, read-out: DPP-IV inhibition IC50) was 65.3 ± 3.5 µM. Take VPV: the IC50 in the data set with DPP-IV [2] (setting [5]) is 6.6 µM.

Take LVW [Peptide P11]: the “DPP-IV Inhibitory Activity (IC50, μM)” value at DPP-IV [1] is listed as “not detectable”. Turning to MPVQA, the IC50 with DPP-IV [2] (setting [6]) was 93.3 ± 8 µM. Consider LPVPQ, for which the IC50 with DPP-IV [2] (setting [4]) was 43.8 ± 8.8 µM.

For VPF, in the data set on DPP-IV [2] (setting [5]), the IC50 is 55.1 µM.

In the case of IPYWT, the IC50 in the data set on DPP-IV [2] (setting [7]) was 18.3 µM. Turning to IPYWTY, the IC50 in the data set with DPP-IV [2] (setting [7]) was 11 µM. For IPAVF, the IC50 with DPP-IV [2] (identified from bovine β-lactoglobulin, read-out: DPP-IV inhibition IC50) was 44.7 µM. Regarding `CC(C)C[C@H](NC(=O)[C@@H](N)CC(C)C)C(=O)N[C@@H](CC(C)C)C(=O)N1CCC[C@H]1C(=O)O` [Peptide P9, LLLP] (H-LLLP-OH; N-terminus and C-terminus assumed), the values for the IC50 (against DPP-IV [1]; in data set [3]) were 214 ± 0.64 µM and 155 ± 8.41 µM, respectively. The Cell viability entry in the data set with Caco-2 cells was “no significant decrease in cell viability”. Turning to LLAP, the “DPP-IV inhibitory activity (in words)” value in the data set with DPP-IV [2] is “high DPP-IV inhibitory activity”. Take LPVP: the IC50 with DPP-IV [2] (setting [6]) is 87 ± 3.2 µM.

`CC(C)[C@H](N)C(=O)N1CCC[C@H]1C(=O)N1CCC[C@H]1C(=O)N[C@@H](Cc1ccccc1)C(=O)O` [Peptide P2, VPPF] (H-VPPF-OH): on DPP-IV [1], the half-maximal inhibitory concentration (IC50) was 1570 ± 256 µM. Regarding LYL [Peptide P7], the “DPP-IV Inhibitory Activity (IC50, μM)” value at DPP-IV [1] is recorded as “not detectable”. Take YPI: the IC50 in the data set on DPP-IV [2] (setting [5]) was 35 µM. `N[C@@H](Cc1ccc(O)cc1)C(=O)N1CCC[C@H]1C(=O)N[C@@H](Cc1ccccc1)C(=O)O` [Peptide P4, YPF] (H-Tyr-Pro-Phe-OH): the Cell viability result in the data set with Caco-2 cells is listed as “no significant decrease in cell viability”.

For the molecule WVL [Peptide P10], the “DPP-IV inhibitory activity (in words)” value with DPP-IV [2] (literature search) is “previously reported to have DPP-IV inhibitory activity”. With PACGGFYISGRPG, the IC50 in the data set with DPP-IV [2] (setting [8]) was 9.4 µM. With INNQFLPYPY, the IC50 in the data set on DPP-IV [2] (setting [8]) is 40.1 µM.

The values above are taken from PMC11049645, “Mechanistic Study of Novel Dipeptidyl Peptidase IV Inhibitory Peptides from Goat’s Milk Based on Peptidomics and In Silico Analysis” (Foods, 2024).
